This passage reports IC50 results from patent US20260022142A1, “MACROCYCLIC IMMUNOMODULATORS” (Bristol-Myers Squibb Company, priority 2022, published 2026).

pIC50: −log10 of the molar value. Bridge positions count the residues as written; N and C are the ends. Square brackets hold non-standard residues; d marks the D form. Peptide text beside a SMILES is read from it. * marks the point of attachment. ξ: configuration not given here. Phe(3-CF3) = N[C@@H](Cc1cccc(C(F)(F)F)c1)C(=O)O; Phe(4-COOH) = N[C@@H](Cc1ccc(C(=O)O)cc1)C(=O)O; Bip = N[C@@H](Cc1ccc(-c2ccccc2)cc1)C(=O)O; Phe(3-F) = N[C@@H](Cc1cccc(F)c1)C(=O)O; Phe(3-Me) = Cc1cccc(C[C@H](N)C(=O)O)c1; Phe(4-F) = N[C@@H](Cc1ccc(F)cc1)C(=O)O; NH(CH2)12COOH = O=C(O)CCCCCCCCCCCCN*; Phe(2-F) = N[C@@H](Cc1ccccc1F)C(=O)O; Val(3-OH) = CC(C)(O)[C@H](N)C(=O)O; hArg = N=C(N)NCCCC[C@H](N)C(=O)O; 4Pal = N[C@@H](Cc1ccncc1)C(=O)O; Cha = N[C@@H](CC1CCCCC1)C(=O)O; Cit = NC(=O)NCCC[C@H](N)C(=O)O; Thr(3ξ) = CC(O)[C@H](N)C(=O)O; PEG4 = NCCOCCOCCOCCOCCC(=O)O; Carboxymethyl = O=C(O)C*; Orn = NCCC[C@H](N)C(=O)O; Aun = NCCCCCCCCCCC(=O)O; Dab = NCC[C@H](N)C(=O)O; Abu = CC[C@H](N)C(=O)O; Dap = NC[C@H](N)C(=O)O; AEEA = NCCOCCOCC(=O)O; ξV = CC(C)C(N)C(=O)O

T1 sequence (Q15116 25-288): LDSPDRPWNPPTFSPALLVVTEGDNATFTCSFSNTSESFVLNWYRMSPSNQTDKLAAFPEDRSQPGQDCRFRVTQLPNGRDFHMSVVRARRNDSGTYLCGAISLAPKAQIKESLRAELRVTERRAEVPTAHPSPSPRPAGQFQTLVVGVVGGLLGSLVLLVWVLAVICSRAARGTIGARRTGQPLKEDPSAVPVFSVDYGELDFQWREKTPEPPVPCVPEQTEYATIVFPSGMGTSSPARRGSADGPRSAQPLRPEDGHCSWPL

The assay concerns the target T1, PD-1/PD-L1 interaction (PE-labeled human PD-L1-Ig binding to Jurkat cell line over-expressing human PD-1) (Homo sapiens, UniProt Q15116).
T1 construct: expressed in transfected cells; host or cells: Jurkat
Description: Jurkat-PD-1 Cell Binding High-Content Screening Assay (CBA). It counts as cell-based. The note with it: Jurkat cell line over-expressing human PD-1; PE-labeled PD-L1-Ig 20 nM final; read-out: Jurkat hPD1-PDL1 IC50. An outline of the steps:
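First, compound is added to PD-1-expressing Jurkat cells in serum-containing DMEM and left 2 h at 37° C. Next, PE-conjugated PD-L1-Ig is introduced at 20 nM final concentration for 1 hour. Finally, cells are fixed in 4% paraformaldehyde with Hoechst 33342, washed and imaged.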
For `CC(C)C[C@H]1NC(=O)[C@H](CCCN)NC(=O)[C@H](Cc2ccc(O)cc2)NC(=O)[C@H](Cc2ccc(-c3ccccc3)cc2)NC(=O)[C@H](C(C)C)NC(=O)[C@H](Cc2c[nH]c3ccccc23)NC(=O)[C@H](CC(=O)O)NC(=O)[C@H](Cc2ccc(C(=O)O)cc2)NC(=O)[C@H](Cc2ccc(OCC(=O)O)cc2)NC(=O)CSC[C@@H](C(=O)NCCOCCOCC(=O)NCCCCCCCCCCC(=O)O)NC(=O)[C@H](CCCNC(N)=O)NC(=O)C(C(C)C)NC(=O)[C@H](CC2CCCCC2)NC(=O)[C@H](CCN)NC1=O` (stereo partly drawn) [Compound 1243] ({CH2CO}-Y(Carboxymethyl)[Phe(4-COOH)]DWV[Bip]Y[Orn][dL][Dab][Cha][ξV][Cit]C[AEEA][Aun]-OH; thioether N-14), the negative logarithm of the IC50 (pIC50) was 7.93.
The figure for `Cc1cccc(C[C@@H]2NC(=O)[C@H](CC(=O)O)NC(=O)[C@H](Cc3ccc(OCC(=O)O)cc3)NC(=O)[C@H](CCCNC(=N)N)NC(=O)CSC[C@@H](C(=O)N[C@@H](CCN)C(=O)NCCCCCCCCCCC(=O)O)NC(=O)[C@H](CCCNC(N)=O)NC(=O)[C@H](C(C)C)NC(=O)[C@H](CC3CCCCC3)NC(=O)[C@H](CCN)NC(=O)[C@@H](CC(C)C)NC(=O)[C@H](CCC(N)=O)NC(=O)[C@H](Cc3ccc(OCC(=O)O)cc3)NC(=O)[C@H](Cc3ccc(-c4ccccc4)cc3)NC(=O)[C@H](CC(C)C)NC2=O)c1` [Compound 3372] ({CH2CO}-RY(Carboxymethyl)D[Phe(3-Me)]L[Bip]Y(Carboxymethyl)Q[dL][Dab][Cha]V[Cit]C[Dab][Aun]-OH; thioether N-14) is 7.94; for `CC(C)C[C@H]1NC(=O)[C@H](Cc2cnc[nH]2)NC(=O)[C@H](Cc2ccc(C(=O)O)cc2)NC(=O)[C@H](Cc2ccc(-c3ccccc3)cc2)NC(=O)[C@H](Cc2ccc(C(=O)O)cc2)NC(=O)[C@H](Cc2cccc(C(F)(F)F)c2)NC(=O)[C@H](CC(=O)O)NC(=O)[C@H](Cc2ccc(C(=O)O)cc2)NC(=O)[C@H](C(C)O)NC(=O)CSC[C@@H](C(=O)N[C@@H](CCN)C(=O)NCCOCCOCC(=O)NCCCCCCCCCCCCC(=O)O)NC(=O)[C@H](CC(=O)O)NC(=O)[C@H](C(C)C)NC(=O)[C@H](CC2CCCCC2)NC(=O)[C@H](CCN)NC1=O` (stereo partly drawn) [Compound 3867] ({CH2CO}-[Thr(3ξ)][Phe(4-COOH)]D[Phe(3-CF3)][Phe(4-COOH)][Bip][Phe(4-COOH)]H[dL][Dab][Cha]VDC[Dab][AEEA]-{NH(CH2)12COOH}; thioether N-14) it is 7.32.
The figure for `Cc1cccc(C[C@@H]2NC(=O)[C@H](CC(=O)O)NC(=O)[C@H](Cc3ccc(OCC(=O)O)cc3)NC(=O)[C@H](CCCCNC(=N)N)NC(=O)CSC[C@@H](C(=O)N[C@@H](CCN)C(=O)NCCOCCOCC(=O)NCCCCCCCCCCC(=O)O)NC(=O)[C@H](CCCN)NC(=O)[C@H](C(C)C)NC(=O)[C@H](CC3CCCCC3)NC(=O)[C@H](CCN)NC(=O)[C@@H](CC(C)C)NC(=O)[C@H](CCCN)NC(=O)[C@H](C(C)C)NC(=O)[C@H](Cc3ccc(-c4ccccc4)cc3)NC(=O)[C@H](C(C)C)NC2=O)c1` [Compound 3245] ({CH2CO}-[hArg]Y(Carboxymethyl)D[Phe(3-Me)]V[Bip]V[Orn][dL][Dab][Cha]V[Orn]C[Dab][AEEA][Aun]-OH; thioether N-14) is 7.96; for `Cc1cccc(C[C@@H]2NC(=O)[C@H](CC(=O)O)NC(=O)[C@H](Cc3ccc(OCC(=O)O)cc3)NC(=O)[C@H](CN)NC(=O)CSC[C@@H](C(=O)N[C@@H](CCN)C(=O)NCCOCCOCC(=O)NCCCCCCCCCCC(=O)O)NC(=O)[C@H](CCCN)NC(=O)[C@H](C(C)C)NC(=O)[C@H](CC3CCCCC3)NC(=O)[C@H](CCN)NC(=O)[C@@H](CC(C)C)NC(=O)[C@H](CCCN)NC(=O)[C@H](Cc3cccc(F)c3)NC(=O)[C@H](Cc3ccc(-c4ccccc4)cc3)NC(=O)[C@H](Cc3ccc(O)cc3)NC2=O)c1` [Compound 2052] ({CH2CO}-[Dap]Y(Carboxymethyl)D[Phe(3-Me)]Y[Bip][Phe(3-F)][Orn][dL][Dab][Cha]V[Orn]C[Dab][AEEA][Aun]-OH; thioether N-14) it is 7.83.
`CC(C)C[C@H]1NC(=O)[C@H](CCCN)NC(=O)[C@H](C(C)C)NC(=O)[C@H](Cc2ccc(-c3ccccc3)cc2)NC(=O)[C@H](C(C)C)NC(=O)[C@H](Cc2c[nH]c3ccccc23)NC(=O)[C@H](CC(=O)O)NC(=O)[C@H](Cc2ccc(C(=O)O)cc2)NC(=O)[C@H](Cc2ccc(OCC(=O)O)cc2)NC(=O)CSC[C@@H](C(=O)NCC(=O)NCCOCCOCC(=O)N[C@@H](CCCN)C(=O)NCCCCCCCCCCC(=O)O)NC(=O)[C@H](CCCN)NC(=O)[C@H](C(C)C)NC(=O)[C@H](CC2CCCCC2)NC(=O)[C@H](CCN)NC1=O` [Compound 3228] ({CH2CO}-Y(Carboxymethyl)[Phe(4-COOH)]DWV[Bip]V[Orn][dL][Dab][Cha]V[Orn]CG[AEEA][Orn][Aun]-OH; thioether N-14): the pIC50 was 8.01.
Regarding `Cc1cccc(C[C@@H]2NC(=O)[C@H](CC(=O)O)NC(=O)[C@H](Cc3ccc(OCC(=O)O)cc3)NC(=O)[C@H](Cc3ccc(F)cc3)NC(=O)CSC[C@@H](C(=O)N[C@@H](CCN)C(=O)NCCCCCCCCCCC(=O)O)NC(=O)[C@H](CO)NC(=O)[C@H](C(C)(C)O)NC(=O)[C@H](CC3CCCCC3)NC(=O)[C@H](CCN)NC(=O)[C@@H](CC(C)C)NC(=O)[C@H](CCCN)NC(=O)[C@H](Cc3ccc(OCC(=O)O)cc3)NC(=O)[C@H](Cc3ccc(-c4ccccc4)cc3)NC(=O)[C@H](Cc3ccc(OCC(=O)O)cc3)NC2=O)c1` [Compound 2216] ({CH2CO}-[Phe(4-F)]Y(Carboxymethyl)D[Phe(3-Me)]Y(Carboxymethyl)[Bip]Y(Carboxymethyl)[Orn][dL][Dab][Cha][Val(3-OH)]SC[Dab][Aun]-OH; thioether N-14), the negative-log IC50 (pIC50) was 7.44.
The figure for `Cc1cccc(C[C@@H]2NC(=O)[C@H](CC(=O)O)NC(=O)[C@H](Cc3ccc(OCC(=O)O)cc3)NC(=O)[C@H](CCN)NC(=O)CSC[C@@H](C(=O)N[C@@H](CCN)C(=O)NCCOCCOCC(=O)NCCOCCOCC(=O)N[C@@H](CC(=O)NCCCCCCCCCCCCC(=O)O)C(=O)O)NC(=O)[C@H](Cc3cnc[nH]3)NC(=O)[C@H](C(C)(C)O)NC(=O)[C@H](CC3CCCCC3)NC(=O)[C@H](CCN)NC(=O)[C@@H](CC(C)C)NC(=O)[C@H](CCCN)NC(=O)[C@H](Cc3ccc(C(=O)O)cc3)NC(=O)[C@H](Cc3ccc(-c4ccccc4)cc3)NC(=O)[C@H](Cc3ccc(C(=O)O)cc3)NC2=O)c1` [Compound 1255] ({CH2CO}-[Dab]Y(Carboxymethyl)D[Phe(3-Me)][Phe(4-COOH)][Bip][Phe(4-COOH)][Orn][dL][Dab][Cha][Val(3-OH)]HC[Dab][AEEA][AEEA]D(NH(CH2)12COOH)-OH; thioether N-14) is 7.99.
Take `CC[C@@H]1NC(=O)CSC[C@@H](C(=O)N[C@@H](CCN)C(=O)NCCOCCOCCOCCOCCC(=O)NCCCCCCCCCCCCC(=O)O)NC(=O)[C@H](Cc2c[nH]cn2)NC(=O)[C@H](C(C)(C)O)NC(=O)[C@H](CC2CCCCC2)NC(=O)[C@H](CCN)NC(=O)[C@@H](CC(C)C)NC(=O)[C@H](CCCN)NC(=O)[C@H](Cc2ccc(C(=O)O)cc2)NC(=O)[C@H](Cc2ccc(-c3ccccc3)cc2)NC(=O)[C@H](Cc2ccc(C(=O)O)cc2)NC(=O)[C@H](Cc2cccc(C(F)(F)F)c2)NC(=O)[C@H](CC(=O)O)NC(=O)[C@H](Cc2ccc(OCC(=O)O)cc2)NC1=O` [Compound 2926] ({CH2CO}-[Abu]Y(Carboxymethyl)D[Phe(3-CF3)][Phe(4-COOH)][Bip][Phe(4-COOH)][Orn][dL][Dab][Cha][Val(3-OH)]HC[Dab][PEG4]-{NH(CH2)12COOH}; thioether N-14): the negative logarithm of the IC50 (pIC50) was 7.48.
As for `Cc1cccc(C[C@@H]2NC(=O)[C@H](CC(=O)O)NC(=O)[C@H](Cc3ccc(OCC(=O)O)cc3)NC(=O)[C@H](Cc3ccncc3)NC(=O)CSC[C@@H](C(=O)N[C@@H](CCN)C(=O)NCCCCCCCCCCC(=O)O)NC(=O)[C@H](CO)NC(=O)[C@H](C(C)(C)O)NC(=O)[C@H](CC3CCCCC3)NC(=O)[C@H](CCN)NC(=O)[C@@H](CC(C)C)NC(=O)[C@H](CCCN)NC(=O)[C@H](Cc3ccc(OCC(=O)O)cc3)NC(=O)[C@H](Cc3ccc(-c4ccccc4)cc3)NC(=O)[C@H](Cc3ccccc3F)NC2=O)c1` [Compound 2184] ({CH2CO}-[4Pal]Y(Carboxymethyl)D[Phe(3-Me)][Phe(2-F)][Bip]Y(Carboxymethyl)[Orn][dL][Dab][Cha][Val(3-OH)]SC[Dab][Aun]-OH; thioether N-14), the pIC50 is 7.99.
On to `CC[C@H](C)[C@@H]1NC(=O)[C@H](Cc2ccc(-c3ccccc3)cc2)NC(=O)[C@H](C(C)C)NC(=O)[C@H](Cc2cccc(C)c2)NC(=O)[C@H](CC(=O)O)NC(=O)[C@H](Cc2ccc(C(=O)O)cc2)NC(=O)[C@H](Cc2ccncc2)NC(=O)CSC[C@@H](C(=O)N[C@@H](Cc2cnc[nH]2)C(=O)NCCCCCCCCCCC(=O)O)NC(=O)[C@H]([C@@H](C)O)NC(=O)[C@H](C(C)C)NC(=O)[C@H](CC2CCCCC2)NC(=O)[C@H](CCN)NC(=O)[C@@H](CC(C)C)NC(=O)[C@H](CCCN)NC1=O` [Compound 1187], for which the negative logarithm of the IC50 (pIC50) is 7.20.
In the case of `Cc1cccc(C[C@@H]2NC(=O)[C@H](CC(=O)O)NC(=O)[C@H](Cc3ccc(OCC(=O)O)cc3)NC(=O)[C@H](CCCNC(=N)N)NC(=O)CSC[C@@H](C(=O)N[C@@H](CCN)C(=O)NCCCCCCCCCCC(=O)O)NC(=O)[C@H](CCC(N)=O)NC(=O)[C@H](C(C)C)NC(=O)[C@H](CC3CCCCC3)NC(=O)[C@H](CCN)NC(=O)[C@@H](CC(C)C)NC(=O)[C@H](CCN)NC(=O)[C@H](CCCNC(N)=O)NC(=O)[C@H](Cc3ccc(-c4ccccc4)cc3)NC(=O)[C@H](C(C)C)NC2=O)c1` [Compound 2797] ({CH2CO}-RY(Carboxymethyl)D[Phe(3-Me)]V[Bip][Cit][Dab][dL][Dab][Cha]VQC[Dab][Aun]-OH; thioether N-14), the pIC50 is 7.93.

For orientation: pIC50 means −log10 of the IC50, conventionally taken in molar units.
